What was measured:
TrkB ECD truncates [1] = target: T1, TrkB ECD truncates (Rattus norvegicus, UniProt Q63604); test: Mapping assay with TrkB ECD truncation mutants; type: binding; details: FIG. 18
T1 construct: made in house
Method: (§1) BDNF is known to bind to the region of the TrkB ECD that contains the third leucine-rich motif (LRM), the second cysteine cluster (CC) domain, and the Immunoglobulin 2 (Ig2) domain (Haniu et al., J. Biol. Chem., 272:25296-303, 1997). To map where 7,8-dihydroxyflavone binds on the TrkB ECD, truncation mutants of the ECD were made and in vitro binding assays were conducted.

TrkB ECD truncates [2] = test: Mapping assay with TrkB ECD truncation mutants; type: binding; details: FIG. 18
Method: as §1

[3] = system: KA-induced neuronal apoptosis; test: Kainic acid time course assay, oral TrkB agonists (caspase-3 immunoblot of brain lysates); type: in vivo, C57BL/6J mice; details: 1 mg/kg orally, KA 20 mg/kg i.p., FIG. 30 right
Method: Male C57BL/6 mice age 60 days were orally injected with a single dose of 4′-DMA-7,8-DHF or 7,8-DHF (1 mg/kg each). KA (20 mg/kg) was i.p. injected. Animals were continually monitored for 2 hours for the onset of seizure activity. At 0, 4 and 8 hours following TrkB agonist treatment, the animals were sacrificed and the brain lysates were analyzed by immunoblotting with p-TrkB-Y817, active caspase-3 and total TrkB antibodies.
To investigate whether these compounds exert any neuroprotective effects in animals, a time course assay was conducted.

TrkA = target: T2, TrkA (Homo sapiens, UniProt P04629); test: Tyrosine phosphorylation of Trk receptors in transfected HEK293 cells: TrkA; type: cell-based; details: FIG. 15
T2 construct: expressed in transfected cells; host or cells: HEK293
Description: To determine if 7,8-dihydroxyflavone promoted tyrosine phosphorylation of the other Trk receptors, HEK293 cells were transfected with various Trk receptors, followed by treatment with 7,8-dihydroxyflavone.

[4] = target: T3, TrkB intracellular domain (ICD) (Rattus norvegicus, UniProt Q63604); test: In vitro binding assay with [3H]7,8-dihydroxyflavone: TrkB ICD; details: gradual increments of [3H]-7,8-dihydroxyflavone
T3 construct: purified TrkB extracellular domain (ECD) and intracellular domain (ICD) recombinant proteins
Method: To determine whether 7,8-dihydroxyflavone physically and directly binds the TrkB receptor, in vitro binding assays were conducted with purified TrkB extracellular domain (ECD) and intracellular domain (ICD) recombinant proteins. Purified TrkB ECD and ICD (10 μg of each) were incubated with different concentrations of ^3H-7,8-dihydroxyflavone in 1 ml of binding buffer (0.05M Na/K phosphate buffer, pH 7.1, 200 mM NaCl) at 4° C. for 10 minutes. After the incubation, the reaction mixture was loaded on filter paper. The mixture was washed three times with Tris buffer (100 mM Tris, pH 7.1), and the dried filter paper was put into a small vial and subjected to liquid scintillation counter analysis. […] The value of the dissociate constant and the number of sites were obtained from Scatchard plots using the equation r/[L]free=n/Kd−r/Kd, where r is the ratio of the concentration of bound ligand to the total protein concentration and n is the number of binding sites.

hippocampal neurons = test: Oxygen-Glucose Deprivation (OGD) of hippocampal neurons; type: cell-based
Method: To explore whether 7,8-dihydroxyflavone exerts any protective effect on hippocampal neurons in Oxygen-Glucose Deprivation (OGD), primary preparations of neurons were treated with BDNF or various flavone derivatives for 30 minutes prior to OGD.

T48 cells = test: Fluorescent apoptotic assay (Staurosporine, MR(DEVD)2) in TrkB stably transfected T48 cells; type: cell-based, murine
Description: Create and test reporter cell lines. In order to identify small molecules that mimic BDNF and activate TrkB, TrkB stably transfected murine cell lines were created. The T48 and T62 cell lines were created by transfecting basal forebrain SN56 cells, which express negligible TrkB, with a TrkB expression construct. […] To test resistance to apoptosis, SN56 cells and the T48 cell line were either untreated or treated with BDNF, and then subjected to an apoptotic assay. Briefly, the cells were treated with 0.75 μM Staurosporine for 9 hours, and 1 hour before the termination of the experiment, the cells were treated with 10 μM MR (DEVD)2. The cells were then fixed with 4% paraformaldehyde for 15 minutes, washed with phosphate buffered saline (PBS), and incubated with Hoechst 33342 for 10 minutes. Cover slides were washed with PBS, mounted, and the cells were examined using a fluorescent microscope to see which cells turned red upon caspase cleavage.
Cell-based screen. To screen a large number of chemicals, a cell-based apoptic assay was developed using a cell permeable fluorescent dye, MR (DEVD)2, which turns red upon caspase cleavage in apoptotic cells. SN56 and T48 cells were plated at 10,000 cells per well in multiple 96-well plates and exposed to 2000 biologically active compounds from the Spectrum Collection Library for 30 minutes at a concentration of 10 μM in DMSO. Following exposure to the compounds, the cells were subjected to the developed fluorescent apoptotic assay described above (method schematically shown in FIG. 2).
In the initial screen, 5 of the 66 positive compounds were flavone derivatives or similar compounds. […] To compare the apoptosis inhibitory activity, the flavone derivatives were preincubated with SN56 and T48 cells, and subsequently were subjected to the fluorescent apoptotic assay as described above. […] Additionally, the effective concentration at which 50% (EC50) of the cells are protected from apoptosis was determined for 7,8-dihydroxyflavone, Cianidanol, Pinocembrin and Diosmetin.

immobility time = test: Forced swim test in TrkB F616A knockin mice with saline or 1NMPP1 pretreatment; type: in vivo; details: drugs for five days, FIG. 36
Method: To assess whether the behavior responses by 7,8-DHF and its derivative are mediated by TrkB receptor, TrkB F616A knockin mice were utilized. The transgenic mice were subjected to saline or 1NMPP1 pretreatment (25 μM), respectively (drinking water provided one day prior to drug injection and maintained throughout whole experiment). The control and/or drugs were provided for five days. […] (Data presented in FIGS. 34, 35, and 36 as mean±SEM; *p<0.05 against vehicle, #P<0.01 against vehicle and ***P<0.0001 against vehicle, student t-test.)

Caspase-3 activation = test: Glutamate-provoked Caspase-3 activation in wild-type and TrkB-/- cortical neurons; type: cell-based, mice; details: FIG. 21
Method: To determine whether 7,8-dihydroxyflavone can selectively activate TrkB receptor and prevent neuronal cell death, cortical neurons were prepared from homozygous pups of TrkB+/−mice, which were mated to the same genotype. […] Glutamate nonselectively elicited weak TrkA phosphorylation in both wild-type and TrkB-null neurons (FIG. 21, row 3).

T2 sequence (P04629 33-796, species assumed): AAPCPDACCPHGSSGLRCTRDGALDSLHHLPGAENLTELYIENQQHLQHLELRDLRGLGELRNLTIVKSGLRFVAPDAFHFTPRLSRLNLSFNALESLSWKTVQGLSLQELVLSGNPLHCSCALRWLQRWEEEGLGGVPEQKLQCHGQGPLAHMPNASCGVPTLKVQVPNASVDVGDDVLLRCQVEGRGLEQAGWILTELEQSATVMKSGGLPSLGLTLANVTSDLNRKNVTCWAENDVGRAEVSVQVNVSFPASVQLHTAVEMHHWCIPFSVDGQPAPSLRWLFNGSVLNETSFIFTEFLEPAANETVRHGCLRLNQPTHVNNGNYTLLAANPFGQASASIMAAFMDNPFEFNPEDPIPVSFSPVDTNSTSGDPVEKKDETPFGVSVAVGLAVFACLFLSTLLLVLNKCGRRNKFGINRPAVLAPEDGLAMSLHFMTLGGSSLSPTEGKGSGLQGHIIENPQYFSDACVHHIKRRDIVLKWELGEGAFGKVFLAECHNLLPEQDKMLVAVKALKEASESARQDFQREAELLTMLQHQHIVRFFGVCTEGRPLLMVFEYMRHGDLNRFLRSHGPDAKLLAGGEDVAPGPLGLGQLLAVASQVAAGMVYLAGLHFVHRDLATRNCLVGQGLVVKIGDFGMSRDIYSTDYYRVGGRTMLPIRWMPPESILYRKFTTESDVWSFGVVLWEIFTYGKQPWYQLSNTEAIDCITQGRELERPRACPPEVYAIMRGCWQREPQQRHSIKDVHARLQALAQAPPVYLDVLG
T3 sequence (Q63604 454-821 limits assumed): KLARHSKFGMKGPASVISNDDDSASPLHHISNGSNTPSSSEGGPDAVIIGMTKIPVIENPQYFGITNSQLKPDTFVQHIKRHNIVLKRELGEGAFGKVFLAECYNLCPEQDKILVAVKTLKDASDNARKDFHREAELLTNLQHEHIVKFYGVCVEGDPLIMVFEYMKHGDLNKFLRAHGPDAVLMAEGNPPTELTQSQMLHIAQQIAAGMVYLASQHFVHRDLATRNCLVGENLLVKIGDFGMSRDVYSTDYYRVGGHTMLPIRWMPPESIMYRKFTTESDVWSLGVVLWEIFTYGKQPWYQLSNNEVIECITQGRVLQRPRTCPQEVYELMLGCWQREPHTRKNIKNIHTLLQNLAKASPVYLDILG

O=c1cc(-c2ccccc2)oc2c(O)c(O)ccc12 [7,8-dihydroxyflavone]
association with the ECD (TrkB ECD truncates [1]): strongly associated
binding to the ICD (TrkB ECD truncates [1]): did not bind
association with the CC-2 domain (TrkB ECD truncates [2]): strongly associated
association with the LRM-domain (TrkB ECD truncates [2]): associated less strongly
binding to the CC-1 domain (TrkB ECD truncates [2]): did not bind
KA-induced caspase-3 activation at 4 h [3]: reduced
active caspase-3 at 8 h [3]: slightly increased
tyrosine phosphorylation of TrkA receptor (TrkA): not
binding to TrkB ICD [4]: not ICD
protective effect in OGD (hippocampal neurons; 30 minutes prior to OGD, apoptotic analysis in 3 hours, FIG. 7 left): most potent protective effects among the compounds
titration assay of protection in OGD (hippocampal neurons; FIG. 7 right): protects neurons in a dose-dependent manner
survival of ischemic insult and treatment (infarct volume; 5 mg/kg intraperitoneally): All animals included in the study survived
infarct volumes (infarct volume; 5 mg/kg intraperitoneally 5 minutes prior to reperfusion, TTC 24 hours after MCAO, FIG. 20): reduced infarct volumes
EC50 (T48 cells; Mus musculus, read-out: effective concentration at which 50% (EC50) of the cells are protected from apoptosis): 35 nM
suppression of apoptosis in T48 cell line (T48 cells; Staurosporine-induced apoptosis, FIG. 1B and FIG. 4): strongly suppressed apoptosis
immobility time after 1NMPP1 treatment (immobility time; 1NMPP1 25 μM in drinking water): neither 4′-DMA-7,8-DHF nor 7,8-DHF had any significant effect
immobility time, saline group (immobility time): substantially reduced the immobility time
Glutamate-provoked Caspase-3 activation in TrkB-/- neurons (Caspase-3 activation): not
Glutamate-provoked Caspase-3 activation in wild-type neurons (Caspase-3 activation): substantially blocked

— patent publication US9895344B2, “Treating various disorders with 7,8-dihydroxyflavone and derivatives thereof” (EMORY UNIVERSITY, priority 2008, dated 2018)
